Results from ChEMBL document CHEMBL3856283, “Structure-based design of ester compounds to inhibit MLL complex catalytic activity by targeting mixed lineage leukemia 1 (MLL1)-WDR5 interaction” (Bioorg Med Chem, 2016).

Assays:
[1] = Antiproliferative activity against human K562 cells harboring BCR-ABL assessed as inhibition of cell viability after 72 hrs by CCK8-based colorimetric assay; assay type: functional; settings: K562, 72 h
[2] = Antiproliferative activity against human MV4-11 cells harboring MLL-AF4 assessed as inhibition of cell viability after 72 hrs by CCK8-based colorimetric assay; assay type: functional; settings: MV4-11, 72 h
[3] = Antiproliferative activity against human MV4-11 cells harboring MLL-AF4 after 7 days by CellTiter-Glo luminescent cell viability Assay; assay type: functional, cell-based; settings: MV4-11, 168 h
[4] = target: T1, WD repeat-containing protein 5 (Homo sapiens, UniProt P61964); test: Inhibition of C-terminal 5-FAM-ARTEVHLRKS binding to WDR5 (unknown origin) by fluorescence polarization assay
[5] = Permeability of the compound after 4 hrs by PAMPA; assay type: ADME; settings: read-out: permeability
[6] = target: T1, WD repeat-containing protein 5; test: Inhibition of N-terminal FITC-GSARAEVHLRKS binding to WDR5 (unknown origin) by fluorescence polarization assay
[7] = target: MLL1/ASH2L/RBBP5/WDR5 complex (Homo sapiens, UniProt P61964+Q03164+Q15291+Q9UBL3); test: Inhibition of recombinant MLL1 (unknown origin) interaction with recombinant ASH2L/RBBP5/WDR5 (unknown origin) assessed as decrease in histone methylation after 60 mins by Alpha Screen assay; assay type: protein-complex assay
K562 = test: Selectivity ratio of IC50 for human K562 cells harboring BCR-ABL to IC50 for human MV4-11 cells harboring MLL-AF4; assay type: functional

SMILES	IC50 [1]	IC50 [2]	IC50 [4]	Papp at 4 h [5]	also measured
CCC(CC)(NC(=O)C(C)C)C(=O)N[C@@H](CCCNC(=N)N)C(=O)NC1(C(=O)NC(c2ccc(F)cc2)c2ccc(F)cc2)CCCC1	37.8 µM	20.7 µM	–	–	IC50 [3]: 25 µM
Cc1c(F)c([N+](=O)[O-])cc(C(=O)Nc2cc(C(=O)OC3CCCCC3)ccc2N2CCN(C)CC2)c1Cl	–	–	> 0.02 µM	–	–
CC(C)OC(=O)c1ccc(N2CCN(C)CC2)c(NC(=O)c2ccc(F)c([N+](=O)[O-])c2)c1	58 µM	13.3 µM	1.17 µM	61.4 ×10⁻⁶ cm/s	–
Cc1c(F)ccc(C(=O)Nc2cc(C(=O)OC(C)C)ccc2N2CCN(C)CC2)c1Cl	> 100 µM	57.1 µM	0.264 µM	49.8 ×10⁻⁶ cm/s	–
CN1CCN(c2ccc(C(=O)Oc3ccccc3)cc2NC(=O)c2ccc(F)c([N+](=O)[O-])c2)CC1	11.6 µM	10.8 µM	0.483 µM	60 ×10⁻⁶ cm/s	–
COC(=O)c1ccc(N2CCN(C)CC2)c(NC(=O)c2cccc(OC)c2)c1	–	–	–	–	Kd [6]: 3 µM
CN1CCN(c2ccc(C(=O)Oc3ccccc3)cc2NC(=O)c2ccc(F)c(N)c2)CC1	–	–	> 20 µM	–	–
COC(=O)c1ccc(N2CCN(C)CC2)c(NC(=O)c2cc(N)c(F)c(C)c2Cl)c1	> 100 µM	> 100 µM	0.0465 µM	52.9 ×10⁻⁶ cm/s	IC50 [7]: 4.6 µM
Cc1c(F)ccc(C(=O)Nc2cc(C(=O)Oc3ccccc3)ccc2N2CCN(C)CC2)c1Cl	53.9 µM	45.2 µM	0.162 µM	48 ×10⁻⁶ cm/s	–
CCOC(=O)c1ccc(N2CCN(C)CC2)c(NC(=O)c2ccc(F)c(C)c2Cl)c1	90.7 µM	49.8 µM	0.284 µM	44.9 ×10⁻⁶ cm/s	–
CN1CCN(c2ccc(C(=O)OC3CCCCC3)cc2NC(=O)c2ccc(F)c([N+](=O)[O-])c2)CC1	–	–	> 20 µM	–	–
CCOC(=O)c1ccc(N2CCN(C)CC2)c(NC(=O)c2ccc(F)c([N+](=O)[O-])c2)c1	–	–	> 0.02 µM	–	–
Cc1c(F)ccc(C(=O)Nc2cc(C(=O)O)ccc2N2CCN(C)CC2)c1Cl	–	–	> 20 µM	–	–
COC(=O)c1ccc(N2CCN(C)CC2)c(NC(=O)c2ccc(F)c(N)c2)c1	–	–	> 0.02 µM	–	–
COC(=O)c1ccc(N2CCN(C)CC2)c(NC(=O)c2ccc(F)c(C)c2Cl)c1	> 100 µM	> 100 µM	0.433 µM	59.8 ×10⁻⁶ cm/s	–
CC(C)OC(=O)c1ccc(N2CCN(C)CC2)c(NC(=O)c2ccc(F)c(N)c2)c1	–	–	> 0.02 µM	–	–
COC(=O)c1ccc(N2CCN(C)CC2)c(NC(=O)c2ccc(F)c([N+](=O)[O-])c2)c1	57.1 µM	4.7 µM	0.454 µM	52.4 ×10⁻⁶ cm/s	Ratio IC50 (K562): 10
Cc1c(F)ccc(C(=O)Nc2cc(C(=O)OC3CCCCC3)ccc2N2CCN(C)CC2)c1Cl	–	–	> 20 µM	–	–
CN1CCN(c2ccc(C(=O)OC3CCCCC3)cc2NC(=O)c2ccc(F)c(N)c2)CC1	–	–	> 0.02 µM	–	–
Cc1c(F)c(N)cc(C(=O)Nc2cc(C(=O)Oc3ccccc3)ccc2N2CCN(C)CC2)c1Cl	33.4 µM	66.5 µM	0.0264 µM	38 ×10⁻⁶ cm/s	IC50 [7]: 5.4 µM
Cc1c(F)c(N)cc(C(=O)Nc2cc(C(=O)OC3CCCCC3)ccc2N2CCN(C)CC2)c1Cl	> 100 µM	> 100 µM	0.0588 µM	5.6 ×10⁻⁶ cm/s	–
CN1CCN(c2ccc(C(=O)O)cc2NC(=O)c2ccc(F)c([N+](=O)[O-])c2)CC1	–	–	> 0.02 µM	–	–
COC(=O)c1ccc(N2CCN(C)CC2)c(NC(=O)c2cc([N+](=O)[O-])c(F)c(C)c2Cl)c1	17.2 µM	3.4 µM	0.245 µM	74.8 ×10⁻⁶ cm/s	–
Cc1c(F)c([N+](=O)[O-])cc(C(=O)Nc2cc(C(=O)Oc3ccccc3)ccc2N2CCN(C)CC2)c1Cl	15.7 µM	9.9 µM	0.812 µM	56.3 ×10⁻⁶ cm/s	–
CC(C)NCC(O)COc1cccc2ccccc12 (stereo unspecified) [PROPRANOLOL]	–	–	–	98.7 ×10⁻⁶ cm/s	–
